Assay results reported in patent US11040957B2, “Heteroaromatic compounds useful for the treatment of proliferative diseases” (Syros Pharmaceuticals, Inc., priority 2013, dated 2021).

Tests used:
MLK3 = target: T1, MLK3 (Homo sapiens, UniProt Q16584); test: LANTHASCREEN EU kinase assay, MLK3; type: binding; conditions: calculated; read-out: C50 against MLK3
T1 construct: purchased Life Technologies (Grand Island, N.Y.), LA[…] kinase assay service
Method: Compounds of the invention were assayed for activity against a variety of different kinases at Life Technologies™ (Grand Island, N.Y.) using their commercially available ADAPTA® (for CDK7, CDK9/cyclin T1, and IRAK1 kinases), Z′-LYTE® (for CDK1, CDK2, CDK5/p25, CDK5/p35, JNK1 and JNK2 kinases) and LANTHASCREEN EU® (for CDK8, CDK9/cyclin K and MLK3) kinase assay services. […] For CDK7, test compounds were tested at concentrations ranging from 10 μM down to 0.514 nM in a series of 3-fold serial dilutions. Details of these assays, including substrates used for each kinase, are available on the Life Technologies web site (www.lifetechnologies.com/). The results of the assay are shown below in Tables 2A and 2B. […] The co-factors used for each kinase in the assays were as follows CDK1—cyclin B; CDK2—cyclin A; CDK5—p25 or p35 as indicated; CDK7—cyclin H and MNAT1; CDK8—cyclin C; CDK9—cyclin K or cyclin T1 as indicated; IRAK1—Histone H3 (1-20) peptide; JNK1—none required; JNK2—none required; MLK3—none required.

CDK5/p25 = target: T2, CDK5/p25 (Homo sapiens, UniProt Q00535); test: Z'-LYTE kinase assay, CDK5/p25; type: biochemical
T2 construct: purchased Life Technologies (Grand Island, N.Y.), Z'-LYTE kinase assay service
Method: (§1) Compounds of the invention were assayed for activity against a variety of different kinases at Life Technologies™ (Grand Island, N.Y.) using their commercially available ADAPTA® (for CDK7, CDK9/cyclin T1, and IRAK1 kinases), Z′-LYTE® (for CDK1, CDK2, CDK5/p25, CDK5/p35, JNK1 and JNK2 kinases) and LANTHASCREEN EU® (for CDK8, CDK9/cyclin K and MLK3) kinase assay services. Test compounds were tested at 100 nM and 1 μM final concentrations in 1% DMSO against all kinases except CDK7. For CDK7, test compounds were tested at concentrations ranging from 10 μM down to 0.514 nM in a series of 3-fold serial dilutions. Details of these assays, including substrates used for each kinase, are available on the Life Technologies web site (www.lifetechnologies.com/). The results of the assay are shown below in Tables 2A and 2B. […] The co-factors used for each kinase in the assays were as follows CDK1—cyclin B; CDK2—cyclin A; CDK5—p25 or p35 as indicated; CDK7—cyclin H and MNAT1; CDK8—cyclin C; CDK9—cyclin K or cyclin T1 as indicated; IRAK1—Histone H3 (1-20) peptide; JNK1—none required; JNK2—none required; MLK3—none required.

Jurkat cells = test: Inhibition of proliferation of Jurkat cells ([…]-GLO, 72 hour); type: cell-based; conditions: Homo sapiens
Method: Representative compounds of the invention were tested at different concentrations (from 10 μM to […]; 0.5 log serial dilutions) for their ability to inhibit the proliferation of Jurkat cells. Cells were grown in RPMI 1640+10% FBS+1% Glutamax supplemented with FBS (Life Technologies) and 100 U.mL^−1 penicillin, 100 μg·mL^−1 streptomycin (Invitrogen) and cultured at 37° C. in a humidified chamber in the presence of 5% CO2. Proliferation assays were conducted over a 72 hour time period. […]-GLO® (Promega Corporation, Madison, Wis. USA) was used to assess the anti-proliferative effects of the compounds following manufacturer's directions and utilizing the reagents supplied with the […]-GLO® kit. In this table, “A” represents an IC50 of less than 500 nM; “B” an IC50 of between 500 nM and 5 μM; and “C” an IC50 of greater than 5 μM.

JNK1 = target: T3, JNK1 (Homo sapiens, UniProt P45983); test: Z'-LYTE kinase assay, JNK1; type: biochemical
T3 construct: purchased Life Technologies (Grand Island, N.Y.), Z'-LYTE kinase assay service
Method: as §1

CDK9/cyclin T1 = target: T4, CDK9/cyclin T1 (Homo sapiens, UniProt P50750); test: ADAPTA kinase assay, CDK9/cyclin T1; type: biochemical; conditions: cyclin T1 co-factor
T4 construct: purchased Life Technologies (Grand Island, N.Y.), ADAPTA kinase assay service
Method: as §1

CDK8 = target: T5, CDK8 (Homo sapiens, UniProt P49336); test: LANTHASCREEN EU kinase assay, CDK8; type: binding; conditions: cyclin C co-factor
T5 construct: purchased Life Technologies (Grand Island, N.Y.), LA[…] kinase assay service
Method: as §1

CDK7 = target: T6, CDK7 (Homo sapiens, UniProt P50613); test: ADAPTA kinase assay, CDK7 (Life Technologies); type: biochemical; conditions: co-factors cyclin H and MNAT1; 10 μM down to 0.514 nM, 3-fold serial dilutions; read-out: CDK7 calculated IC50
T6 construct: purchased Life Technologies (Grand Island, N.Y.), ADAPTA kinase assay service
Method: Test compounds were tested at 100 nM and 1 μM final concentrations in 1% DMSO against all kinases except CDK7. For CDK7, test compounds were tested at concentrations ranging from 10 μM down to 0.514 nM in a series of 3-fold serial dilutions. […] The co-factors used for each kinase in the assays were as follows CDK1—cyclin B; CDK2—cyclin A; CDK5—p25 or p35 as indicated; CDK7—cyclin H and MNAT1; CDK8—cyclin C; CDK9—cyclin K or cyclin T1 as indicated; IRAK1—Histone H3 (1-20) peptide; JNK1—none required; JNK2—none required; MLK3—none required.

CDK9/cyclin K = target: T7, CDK9/cyclin K (Homo sapiens, UniProt P50750); test: LANTHASCREEN EU kinase assay, CDK9/cyclin K; type: binding; conditions: cyclin K co-factor
T7 construct: purchased Life Technologies (Grand Island, N.Y.), LANTHASCREEN EU kinase assay service
Method: as §1

CDK1 = target: T8, CDK1 (Homo sapiens, UniProt P06493); test: Z'-LYTE kinase assay, CDK1; type: biochemical; conditions: cyclin B co-factor
T8 construct: purchased Life Technologies (Grand Island, N.Y.), Z'-LYTE kinase assay service
Method: as §1

CDK5/p35 = target: T9, CDK5/p35 (Homo sapiens, UniProt Q00535); test: Z'-LYTE kinase assay, CDK5/p35; type: biochemical; conditions: p35 co-factor
T9 construct: purchased Life Technologies (Grand Island, N.Y.), Z'-LYTE kinase assay service
Method: as §1

JNK2 = target: T10, JNK2 (Homo sapiens, UniProt P45984); test: Z'-LYTE kinase assay, JNK2; type: biochemical
T10 construct: purchased Life Technologies (Grand Island, N.Y.), Z'-LYTE kinase assay service
Method: as §1

CDK2 = target: T11, CDK2 (Homo sapiens, UniProt P24941); test: Z'-LYTE kinase assay, CDK2; type: biochemical; conditions: cyclin A co-factor
T11 construct: purchased Life Technologies (Grand Island, N.Y.), Z'-LYTE kinase assay service
Method: as §1

T2 sequence (Q00535 whole entry): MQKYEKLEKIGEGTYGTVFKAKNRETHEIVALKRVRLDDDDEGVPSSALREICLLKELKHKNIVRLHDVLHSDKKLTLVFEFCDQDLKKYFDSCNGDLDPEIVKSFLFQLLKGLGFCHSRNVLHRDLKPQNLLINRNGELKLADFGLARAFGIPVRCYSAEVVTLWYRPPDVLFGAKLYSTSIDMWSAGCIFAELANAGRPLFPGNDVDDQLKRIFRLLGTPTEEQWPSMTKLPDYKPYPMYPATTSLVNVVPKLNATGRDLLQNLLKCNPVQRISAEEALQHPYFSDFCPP
T2 sequence (Q15078 99-307 partner limits assumed): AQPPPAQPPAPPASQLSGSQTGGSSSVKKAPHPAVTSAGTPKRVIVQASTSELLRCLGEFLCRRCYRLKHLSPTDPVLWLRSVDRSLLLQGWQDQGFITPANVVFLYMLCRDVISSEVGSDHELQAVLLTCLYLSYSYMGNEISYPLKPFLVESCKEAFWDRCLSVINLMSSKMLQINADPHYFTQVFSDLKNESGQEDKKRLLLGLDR
T6 sequence (P50613 whole entry): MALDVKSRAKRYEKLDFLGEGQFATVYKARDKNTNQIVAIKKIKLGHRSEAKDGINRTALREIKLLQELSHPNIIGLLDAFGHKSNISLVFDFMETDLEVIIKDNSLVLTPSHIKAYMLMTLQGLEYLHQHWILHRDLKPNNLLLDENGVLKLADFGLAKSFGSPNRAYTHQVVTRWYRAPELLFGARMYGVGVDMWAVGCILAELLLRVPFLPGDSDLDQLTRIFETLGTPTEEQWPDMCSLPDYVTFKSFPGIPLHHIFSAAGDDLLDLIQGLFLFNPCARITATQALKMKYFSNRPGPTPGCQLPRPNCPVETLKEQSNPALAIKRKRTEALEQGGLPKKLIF
T6 sequence (P51946 whole entry partner): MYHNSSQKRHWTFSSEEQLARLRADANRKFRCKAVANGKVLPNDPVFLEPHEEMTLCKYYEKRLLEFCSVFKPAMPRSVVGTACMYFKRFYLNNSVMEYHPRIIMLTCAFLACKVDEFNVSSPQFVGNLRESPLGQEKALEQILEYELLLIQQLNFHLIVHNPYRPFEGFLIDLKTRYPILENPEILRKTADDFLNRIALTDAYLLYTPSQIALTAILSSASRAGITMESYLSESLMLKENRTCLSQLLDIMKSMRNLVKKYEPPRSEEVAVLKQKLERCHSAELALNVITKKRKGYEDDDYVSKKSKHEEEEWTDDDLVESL
T6 sequence (P51948 whole entry partner): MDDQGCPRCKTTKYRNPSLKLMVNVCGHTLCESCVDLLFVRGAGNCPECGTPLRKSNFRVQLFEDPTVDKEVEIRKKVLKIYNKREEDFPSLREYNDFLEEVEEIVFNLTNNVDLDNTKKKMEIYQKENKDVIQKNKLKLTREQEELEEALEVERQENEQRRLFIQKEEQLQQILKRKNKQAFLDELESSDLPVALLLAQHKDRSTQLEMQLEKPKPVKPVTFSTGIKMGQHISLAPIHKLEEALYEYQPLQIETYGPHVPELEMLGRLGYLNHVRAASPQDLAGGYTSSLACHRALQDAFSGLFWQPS
T7 sequence (P50750 whole entry): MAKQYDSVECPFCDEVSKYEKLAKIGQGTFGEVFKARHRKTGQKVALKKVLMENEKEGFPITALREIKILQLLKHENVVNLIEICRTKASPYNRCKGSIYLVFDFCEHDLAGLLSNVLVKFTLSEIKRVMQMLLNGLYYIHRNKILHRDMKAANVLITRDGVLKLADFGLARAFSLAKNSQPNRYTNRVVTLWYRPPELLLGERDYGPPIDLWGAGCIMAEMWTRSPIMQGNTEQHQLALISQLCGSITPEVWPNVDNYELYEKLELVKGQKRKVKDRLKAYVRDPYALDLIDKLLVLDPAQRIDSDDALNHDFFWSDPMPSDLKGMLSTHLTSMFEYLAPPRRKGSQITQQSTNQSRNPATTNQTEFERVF
T7 sequence (O75909 whole entry partner): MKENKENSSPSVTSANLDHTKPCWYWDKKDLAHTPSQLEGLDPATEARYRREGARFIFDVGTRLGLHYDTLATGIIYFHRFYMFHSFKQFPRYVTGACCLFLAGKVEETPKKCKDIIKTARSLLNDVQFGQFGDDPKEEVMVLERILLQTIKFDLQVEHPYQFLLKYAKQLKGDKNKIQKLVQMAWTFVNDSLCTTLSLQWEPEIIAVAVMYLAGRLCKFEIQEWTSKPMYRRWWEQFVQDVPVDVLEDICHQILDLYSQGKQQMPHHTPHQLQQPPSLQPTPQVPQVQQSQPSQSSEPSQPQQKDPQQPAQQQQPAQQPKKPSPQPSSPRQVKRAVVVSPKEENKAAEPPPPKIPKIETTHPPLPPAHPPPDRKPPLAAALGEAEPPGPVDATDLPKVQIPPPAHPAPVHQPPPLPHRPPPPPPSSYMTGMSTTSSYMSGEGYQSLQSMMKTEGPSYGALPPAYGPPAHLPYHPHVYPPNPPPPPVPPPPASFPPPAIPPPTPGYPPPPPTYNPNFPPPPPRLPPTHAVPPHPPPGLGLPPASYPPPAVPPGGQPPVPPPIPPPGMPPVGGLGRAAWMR
T4 sequence (P50750 whole entry): as the sequence (P50750 whole entry) above
T4 sequence (O60563 whole entry partner): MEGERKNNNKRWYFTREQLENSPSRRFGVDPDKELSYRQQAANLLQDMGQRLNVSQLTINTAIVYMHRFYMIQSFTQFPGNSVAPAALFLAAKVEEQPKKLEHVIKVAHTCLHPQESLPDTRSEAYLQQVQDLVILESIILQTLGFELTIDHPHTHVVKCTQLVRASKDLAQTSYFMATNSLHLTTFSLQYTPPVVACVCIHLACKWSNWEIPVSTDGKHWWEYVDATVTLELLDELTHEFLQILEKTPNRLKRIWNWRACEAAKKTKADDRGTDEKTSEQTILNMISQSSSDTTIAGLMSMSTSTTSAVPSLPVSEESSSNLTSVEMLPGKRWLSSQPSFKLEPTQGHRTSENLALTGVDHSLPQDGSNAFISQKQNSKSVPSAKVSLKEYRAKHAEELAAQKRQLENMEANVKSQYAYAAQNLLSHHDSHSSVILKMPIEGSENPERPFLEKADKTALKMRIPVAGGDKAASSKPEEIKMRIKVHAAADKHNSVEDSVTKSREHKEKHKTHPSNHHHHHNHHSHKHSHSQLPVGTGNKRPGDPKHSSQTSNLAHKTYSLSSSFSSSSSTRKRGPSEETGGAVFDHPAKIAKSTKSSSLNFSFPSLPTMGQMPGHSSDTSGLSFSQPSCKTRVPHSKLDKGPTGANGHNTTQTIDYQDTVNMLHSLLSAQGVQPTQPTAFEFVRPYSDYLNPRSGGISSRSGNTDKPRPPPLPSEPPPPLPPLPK
T3 sequence (P45983 whole entry): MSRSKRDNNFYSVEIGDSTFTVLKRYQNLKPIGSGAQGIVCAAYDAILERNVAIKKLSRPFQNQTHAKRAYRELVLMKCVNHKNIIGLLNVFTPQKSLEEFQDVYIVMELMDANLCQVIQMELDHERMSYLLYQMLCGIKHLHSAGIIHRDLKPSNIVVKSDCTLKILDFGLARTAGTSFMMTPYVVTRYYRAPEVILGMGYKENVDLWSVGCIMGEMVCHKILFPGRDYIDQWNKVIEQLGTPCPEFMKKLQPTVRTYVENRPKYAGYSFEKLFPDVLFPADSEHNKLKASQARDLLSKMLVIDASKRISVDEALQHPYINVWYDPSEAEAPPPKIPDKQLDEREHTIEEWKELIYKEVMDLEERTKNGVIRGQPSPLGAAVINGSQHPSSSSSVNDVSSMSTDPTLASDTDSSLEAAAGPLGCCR
T8 sequence (P06493 whole entry): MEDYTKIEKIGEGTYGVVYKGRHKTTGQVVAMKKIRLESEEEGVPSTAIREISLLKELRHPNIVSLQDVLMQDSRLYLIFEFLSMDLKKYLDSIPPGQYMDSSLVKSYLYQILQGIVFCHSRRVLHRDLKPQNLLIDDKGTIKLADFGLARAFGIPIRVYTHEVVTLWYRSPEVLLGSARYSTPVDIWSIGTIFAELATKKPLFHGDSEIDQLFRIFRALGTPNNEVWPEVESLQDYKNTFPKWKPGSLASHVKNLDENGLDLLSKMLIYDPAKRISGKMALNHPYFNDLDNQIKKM
T8 sequence (P14635 whole entry partner): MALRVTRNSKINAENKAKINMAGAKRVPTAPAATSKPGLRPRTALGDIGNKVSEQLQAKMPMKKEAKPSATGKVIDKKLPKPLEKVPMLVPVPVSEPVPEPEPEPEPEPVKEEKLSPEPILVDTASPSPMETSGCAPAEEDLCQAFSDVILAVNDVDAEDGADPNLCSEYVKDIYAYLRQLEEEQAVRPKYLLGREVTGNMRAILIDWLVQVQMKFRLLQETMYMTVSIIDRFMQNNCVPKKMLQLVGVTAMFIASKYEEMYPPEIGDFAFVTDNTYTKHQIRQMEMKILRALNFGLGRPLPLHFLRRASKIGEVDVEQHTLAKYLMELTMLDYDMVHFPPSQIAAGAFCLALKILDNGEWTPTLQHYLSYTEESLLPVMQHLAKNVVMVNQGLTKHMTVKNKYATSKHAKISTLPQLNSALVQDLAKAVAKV
T10 sequence (P45984 whole entry): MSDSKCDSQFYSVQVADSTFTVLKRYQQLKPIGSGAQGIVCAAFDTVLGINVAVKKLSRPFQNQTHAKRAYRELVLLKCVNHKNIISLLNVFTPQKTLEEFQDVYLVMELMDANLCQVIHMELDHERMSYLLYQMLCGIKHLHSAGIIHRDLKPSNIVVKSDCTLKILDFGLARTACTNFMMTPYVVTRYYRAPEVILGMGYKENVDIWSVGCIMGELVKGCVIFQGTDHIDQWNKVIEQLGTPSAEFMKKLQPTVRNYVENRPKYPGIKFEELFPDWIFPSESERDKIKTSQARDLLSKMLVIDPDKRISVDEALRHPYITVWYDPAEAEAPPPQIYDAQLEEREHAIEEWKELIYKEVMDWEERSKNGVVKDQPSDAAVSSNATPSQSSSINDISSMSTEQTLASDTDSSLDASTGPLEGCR

## CN(C)C/C=C/C(=O)Nc1ccc(C(=O)N2CCCC(Nc3ncc(Cl)c(-c4c[nH]c5ccccc45)n3)C2)cc1 (stereo not drawn) [Compound 100, (E)-N-(4-(3-(5-chloro-4-(1H-indol-3-yl)pyrimidin-2-ylamino)piperidine-1-carbonyl)phenyl)-4-(dimethylamino)but-2-enamide]
MLK3
  IC50: 3200 nM
CDK5/p25; p25 as co-factor, calculated, read-out: IC50 against CDK5
  IC50: 3000 nM
Jurkat cells
  IC50: < 500 nM

## CN(C)C/C=C/C(=O)Nc1ccc(C(=O)N2CCCC(CNc3ncc(Cl)c(-c4c[nH]c5ccccc45)n3)C2)cc1 (stereo not drawn) [Compound 101, (E)-N-(4-(3-((5-chloro-4-(1H-indol-3-yl)pyrimidin-2-ylamino)methyl)piperidine-1-carbonyl)phenyl)-4-(dimethylamino)but-2-enamide]
JNK1; compound tested at 100 nM
  inhibition at 0.1 µM: 50 to 70%
JNK1; compound tested at 1 μM
  inhibition at 1 µM: > 70%
CDK9/cyclin T1; compound tested at 100 nM
  inhibition at 0.1 µM: < 50%
CDK9/cyclin T1; compound tested at 1 μM
  inhibition at 1 µM: < 50%
CDK8; compound tested at 100 nM
  inhibition at 0.1 µM: < 50%
CDK8; compound tested at 1 μM
  inhibition at 1 µM: < 50%
CDK7
  IC50: 100 to 1000 nM
CDK5/p25; compound tested at 100 nM, p25 co-factor
  inhibition at 0.1 µM: < 50%
CDK5/p25; compound tested at 1 μM, p25 co-factor
  inhibition at 1 µM: < 50%
CDK9/cyclin K; compound tested at 100 nM
  inhibition at 0.1 µM: < 50%
CDK9/cyclin K; compound tested at 1 μM
  inhibition at 1 µM: < 50%
Jurkat cells
  IC50: 500 to 5000 nM
CDK1; compound tested at 100 nM
  inhibition at 0.1 µM: < 50%
CDK1; compound tested at 1 μM
  inhibition at 1 µM: < 50%
CDK5/p35; compound tested at 100 nM
  inhibition at 0.1 µM: < 50%
CDK5/p35; compound tested at 1 μM
  inhibition at 1 µM: < 50%
JNK2; compound tested at 100 nM
  inhibition at 0.1 µM: < 50%
JNK2; compound tested at 1 μM
  inhibition at 1 µM: > 70%
CDK2; compound tested at 100 nM
  inhibition at 0.1 µM: < 50%
CDK2; compound tested at 1 μM
  inhibition at 1 µM: < 50%

## CN(C)C/C=C/C(=O)Nc1ccc(NC(=O)N2CCCC(Nc3ncc(Cl)c(-c4c[nH]c5ccccc45)n3)C2)cc1 (stereo not drawn) [Compound 102]
CDK7
  IC50: 100 to 1000 nM
